Experimental data reported in US6537994B2, “Heterocyclic β3 adrenergic receptor agonists” (Wyeth, priority 2000, dated 2003).
Several values for one entry are separate records, joined by “and”; a condition that tells them apart may be missing. Equal values may be shown once.

What was measured:
human β3-AR = target: T1, human β3-AR (Homo sapiens, UniProt P13945); experiment: cAMP accumulation (SPA) in CHO cells transfected with human β3 adrenergic receptor; type: cell-based; conditions: for EC50: CHO cells expressing human β3-AR, cAMP, 30 min incubation, 10^−9 M to 10^−5 M; for IA(β3): maximal response, IA=% activity compound/% activity isoproterenol at 10^−5 M
T1 construct: Full length β3 AR clones (402 amino acids) containing the last 6 amino acids of hβ3-AR; expressed in transfected cells; host or cells: CHO cells
Procedure: The ability of compounds of this invention to treat or inhibit disorders related to insulin resistance or hyperglycemia was confirmed with representative compounds of this invention in the following standard pharmacological test procedures, which measured the binding selectivity to the β1, β2, and β3 adrenergic receptors. Binding to the receptors was measured in Chinese Hamster ovary (CHO) cells that were transfected with adrenergic receptors. The following briefly summarizes the procedures used and results obtained.
Cloning of Human β3-AR Genomic DNA: cDNA was constructed by ligating four polymerase chain reaction (PCR) products using the following primers: an ATG-Narl fragment, sense primer 5′-[…]3′ and anti-sense primer 5′[…]3′; a Narl-Accl fragment, 5′[…]3′ as sense and 5′[…]3′ as anti-sense primer; an Accli-Styl fragment, sense primer 5′[…]3′ and anti-sense primer 5′[…]3′ and a Styl-TAG fragment, with sense primer 5′[…]3′ and anti-sense primer 5′[…]3′. The corresponding primer sequences are described in Mantzoros, C. S., et. al., Diabetes 45: 909-914 (1996). The four fragments are ligated into a pUC 18 plasmid (Gibco-BRL) and sequenced. Full length β3 AR clones (402 amino acids) containing the last 6 amino acids of hβ3-AR are prepared with the β3-βARpcDNA3 from ATTC.
Binding Procedure: Clones expressing receptor levels of 70 to 110 fmoles/mg protein were used in the test procedures. CHO cells were grown in 24-well tissue culture plates in Dulbecco's Modified Eagle Media with 10% fetal bovine serum, MEM non-essential amino acids, Penicillin-Streptompycin and Geneticin. On the day of test procedure, growth medium was replaced with preincubation media (Dulbecco's Modified Eagle Media and incubated for 30 minutes at 37° C. Preincubation medium was replaced with 0.2 ml treatment medium containing DMEM media containing 250 μM IBMX (isobutyl-1-methylxantine) plus 1 mM ascorbic acid with test compound dissolved in DMSO. Test compounds were tested over a concentration range of 10^−9 M to 10^−5 M for β3 cells and 10^−8 to 10^−4 M for β1 and β2 transfected cells. Isoproterenol (10^−5 M) was used as an internal standard for comparison of activity. Cells were incubated at 37° C. on a rocker for 30 min with the β3 cells and 15 min for β1 and β2 cells. Incubation was stopped with the addition of 0.2N HCl and neutralized with 2.5N NaOH. The plates, containing the cells and neutralized media, were stored at −20 degrees celsius until ready to test for cAMP using the SPA test kit (Amersham).
Data Analysis and Results: Data collected from the SPA test procedure were analyzed as per cent of the maximal isoproterenol response at 10^−5 M. Activity curves were plotted using the SAS statistical and graphics software.
IA=% activity compound/% activity isoproterenol

T1 sequence (P13945 whole entry): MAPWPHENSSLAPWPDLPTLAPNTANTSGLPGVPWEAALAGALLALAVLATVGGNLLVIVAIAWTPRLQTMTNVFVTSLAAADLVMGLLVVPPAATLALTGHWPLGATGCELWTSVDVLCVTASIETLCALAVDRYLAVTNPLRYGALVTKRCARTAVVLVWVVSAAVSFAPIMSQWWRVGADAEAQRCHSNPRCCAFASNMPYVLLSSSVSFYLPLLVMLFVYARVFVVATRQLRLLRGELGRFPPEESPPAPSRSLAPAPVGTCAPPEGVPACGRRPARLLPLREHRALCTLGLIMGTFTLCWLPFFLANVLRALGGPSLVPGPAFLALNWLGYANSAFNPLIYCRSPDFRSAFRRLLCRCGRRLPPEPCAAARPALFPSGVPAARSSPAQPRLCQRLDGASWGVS

SMILES | melting point | EC50 (human β3-AR) | IA(β3) (human β3-AR)
CCCCCCNC(=O)Nc1cccc(-c2nc3cccnc3n2-c2ccc(CCNCC(O)COc3ccc(O)cc3)cc2)c1 (stereo not drawn) (hydrate or solvate) [Example 16, 1-Hexyl-3-{3-[3-(4-{2-[2-hydroxy-3-(4-hydroxy-phenoxy)-propylamino]-ethyl}-phenyl)-3H-imidazo[4,5-b]pyridin-2-yl]-phenyl}-urea] | 93 to 95 °C |  | 
Oc1ccc(OC[C@@H](O)CNCCc2ccc(-n3cnc4cccnc43)cc2)cc1 (hydrate or solvate) [Example 3, 4-{(2S)-2-Hydroxy-3-[2-(4-imidazo[4,5-b]pyridin-3-yl-phenyl)-ethylamino]-propoxy}-phenol] | 49 to 52 °C |  | 
Cc1ccn(-c2ccc(-c3nc4cccnc4n3-c3ccc(CCNCC(O)COc4ccc(O)cc4)cc3)c(Cl)c2)n1 (stereo not drawn) [Example 14, 4-{3-[2-(4-{2-[2-Chloro-4-(3-methyl-pyrazol-1-yl)-phenyl]-imidazo[4,5-b]pyridin-3-yl}-phenyl)-ethylamino]-2-hydroxy-propoxy}-phenol] | 87 to 89 °C | 54 nM | 0.086
CCCCCCNC(=O)Nc1ccc(CCc2nc3cccnc3n2-c2ccc(CCNC[C@H](O)COc3ccc(O)cc3)cc2)cc1 (hydrate or solvate) [Example 17, 1-Hexyl-3-(4-{2-[3-(4-{2-[(2S)-2-hydroxy-3-(4-hydroxy-phenoxy)-propylamino]-ethyl}-phenyl)-3H-imidazo[4,5-b]pyridin-2-yl]-ethyl}-phenyl)-urea] | 90 to 92 °C |  | 
Nc1cccnc1Nc1ccc(CCNC[C@H](O)COc2ccc(O)cc2)cc1 (hydrate or solvate) [Example 2, 4-((2R)-3-{2-[4-(3-Amino-pyridin-2-ylamino)-phenyl]-ethylamino}-2-hydroxy-propoxy)-phenol] | 63 to 65 °C |  | 
O=[N+]([O-])c1cccnc1Nc1ccc(CCNC[C@H](O)COc2ccc(O)cc2)cc1 [Example 1, 4-((2S)-2-Hydroxy-3-{2-[4-(3-nitro-pyridin-2-ylamino)-phenyl]-ethylamino}-propoxy)-phenol] |  | 324 nM | 0.65
Oc1ccc(OC[C@@H](O)CNCCc2ccc(-n3c(CCC4CCCC4)nc4cccnc43)cc2)cc1 [Example 11, 4-[(2S)-3-(2-{4-[2-(2-Cyclopentyl-ethyl)-imidazo[4,5-b]pyridin-3-yl]-phenyl}-ethylamino)-2-hydroxy-propoxy]-phenol] | 59 to 61 °C | 10 nM | 0.86
CCCCCc1nc2cccnc2n1-c1ccc(CCNC[C@H](O)COc2ccc(O)cc2)cc1 [Example 9, 4-((2S)-2-Hydroxy-3-{2-[4-(2-pentyl-imidazo[4,5-b]pyridin-3-yl)-phenyl]-ethylaminol}-propoxy)-phenol] | 50 to 52 °C | 266 nM | 0.74
Nc1cccnc1Oc1ccc(CCNC[C@H](O)COc2ccc(O)cc2)cc1 [Example 5, 4-((2S)-3-{2-[4-(3-Amino-pyridin-2-yloxy)-phenyl]-ethylamino}-2-hydroxy-propoxy)-phenol] |  | 20 nM | 1.12
CCc1ccc(-c2nc3cccnc3n2-c2ccc(CCNC[C@H](O)COc3ccc(O)cc3)cc2)cc1 [Example 8, 4-[(2S)-3-(2-{4-[2-(4-Ethyl-phenyl)-imidazo[4,5-b]pyridin-3-yl]-phenyl}-ethylamino)-2-hydroxy-propoxy]-phenol] | 75 to 78 °C | 6 nM | 1.03
C=C(C)n1c(=O)n(-c2ccc(CCNC[C@H](O)COc3ccc(O)cc3)cc2)c2ncccc21 [Example 7, 3-(4-{2-[(2S)-2-Hydroxy-3-(4-hydroxy-phenoxy)-propylamino]-ethyl}-phenyl)-1-isopropenyl-1,3-dihydro-imidazo[4,5-b]pyridin-2-one] | 62 to 64 °C | 57 nM | 1.12
Oc1ccc(OC[C@@H](O)CNCCc2ccc(-n3c(-c4ccc(C5CCCCC5)cc4)nc4cccnc43)cc2)cc1 [Example 10, 4-[(2S)-3-(2-{4-[2-(4-Cyclohexyl-phenyl)-imidazo[4,5-b]pyridin-3-yl]-phenyl}-ethylamino)-2-hydroxy-propoxy]-phenol] | 100 to 102 °C | 6 nM | 0.96
Nc1cccnc1Nc1ccc(CCNCC(O)COc2ccc(O)cc2)cc1 (stereo in doubt) [Example 2, 4-((2R)-3-{2-[4-(3-Amino-pyridin-2-ylamino)-phenyl]-ethylamino}-2-hydroxy-propoxy)-phenol] |  | 72 nM | 1.01
O=c1[nH]c2cccc(OCC(O)CNCCc3ccc(-n4c(CCC5CCCC5)nc5cccnc54)cc3)c2[nH]1 (stereo not drawn) [Example 12, 4-[3-(2-{4-[2-(2-Cyclopentyl-ethyl)-imidazo[4,5-b]pyridin-3-yl]-phenyl}-ethylamino) -2-hydroxy-propoxy]-1,3-dihydro-benzoimidazol-2-one] | 115 to 117 °C | 5 nM and 15 nM | 
CCCCCCNC(=O)Nc1cccnc1Nc1ccc(CCNC[C@H](O)COc2ccc(O)cc2)cc1 [Example 4, 1-Hexyl-3-[2-(4-{2-[(2S)-2-hydroxy-3-(4-hydroxy-phenoxy)-propylamino]-ethyl}-phenylamino)-pyridin-3-yl]-urea] | 61 to 64 °C |  | 
CCCCCCNC(=O)Nc1ccc(-c2nc3cccnc3n2-c2ccc(CCNC[C@H](O)COc3ccc(O)cc3)cc2)cc1 (hydrate or solvate) [Example 15, N-hexyl-N′-(4-{3-[4-(2-{[(2S)-2-hydroxy-3-(4-hydroxyphenoxy)propyl]amino}ethyl)phenyl]-3H-imidazo[4,5-b]pyridin-2-yl}phenyl)urea] | 110 to 116 °C |  | 
O=C(Nc1cccnc1Nc1ccc(CCNC[C@H](O)COc2ccc(O)cc2)cc1)c1ccccc1 [Example 6, N-[2-(4-{2-[(2S)-2-Hydroxy-3-(4-hydroxy-phenoxy)-propylamino]-ethyl}-phenylamino)-pyridin-3-yl]-benzamide] | 97 to 99 °C | 83 nM | 0.88
Oc1ccc(OC[C@@H](O)CNCCc2ccc(-n3cnc4cccnc43)cc2)cc1 [Example 3, 4-{(2S)-2-Hydroxy-3-[2-(4-imidazo[4,5-b]pyridin-3-yl-phenyl)-ethylamino]-propoxy}-phenol] |  | 95 nM | 0.76
O=[N+]([O-])c1cccnc1Nc1ccc(CCNC[C@H](O)COc2ccc(O)cc2)cc1 (hydrate or solvate) [Example 1, 4-((2S)-2-Hydroxy-3-{2-[4-(3-nitro-pyridin-2-ylamino)-phenyl]-ethylamino}-propoxy)-phenol] | 148 to 149 °C |  | 
CCCCCc1nc2cccnc2n1-c1ccc(CCNC[C@H](O)COc2cccc3[nH]c(=O)[nH]c23)cc1 [Example 13, 4-((2S)-2-Hydroxy-3-{2-[4-(2-pentyl-imidazo[4,5-b]pyridin-3-yl)-phenyl]-ethylaminol}-propoxy)-1,3-dihydro-benzoimidazol-2-one] |  | 46 nM | 0.087
CCCCCCNC(=O)Nc1ccc(-c2nc3cccnc3n2-c2ccc(CCNC[C@H](O)COc3ccc(O)cc3)cc2)cc1 [Example 15, N-hexyl-N′-(4-{3-[4-(2-{[(2S)-2-hydroxy-3-(4-hydroxyphenoxy)propyl]amino}ethyl)phenyl]-3H-imidazo[4,5-b]pyridin-2-yl}phenyl)urea] |  | 70 nM | 1.05
